# Test results published in ChEMBL document CHEMBL1201862, “PubChem BioAssay data set” (2004).
#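 How tested: cells in 96-well plates exposed to compound for 48 hours at five concentrations. At the GI50, growth is halved.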 Active and inactive are the calls of the source. Rule as the data show it: active = GI50 up to about 1.1 µM and inactive = higher.
# Assays:
# Assay in all cases: growth of human tumour cells (NCI), 48 h
# [1] = system: HL-60
# [2] = system: NCI-H460
# [3] = system: CAKI-1
# [4] = system: A498
# [5] = system: DU-145
# [6] = system: ACHN
# [7] = system: RXF 393
# [8] = system: MOLT-4
# [9] = system: OVCAR-3
# [10] = system: SK-MEL-2
# [11] = system: BT-549
# [12] = system: MDA-MB-435
# [13] = system: UO-31
# [14] = system: HOP-62
# [15] = system: Malme-3M
# [16] = system: EKVX
# [17] = system: UACC-257
# [18] = system: PC-3
# [19] = system: U-251
# [20] = system: SN12C
# [21] = system: HT-29
# [22] = system: OVCAR-5
# [23] = system: 786-0
# [24] = system: CCRF-CEM
# [25] = system: SF-295
# [26] = system: M14
# [27] = system: LOX IMVI
# [28] = system: SNB-75
# [29] = system: NCI-H522
# [30] = system: A549
# [31] = system: SF-268
# [32] = system: HOP-92
# [33] = system: MCF7
# [34] = system: TK-10
# [35] = system: SK-MEL-28
# [36] = system: NCI-H226
# [37] = system: K562
# [38] = system: MDA-MB-231
# [39] = system: HCT-15
# [40] = system: UACC-62
# [41] = system: SF-539
# [42] = system: OVCAR-4
# [43] = system: COLO 205
# [44] = system: SK-MEL-5
# [45] = system: Hs-578T
# [46] = system: NCI-H23
# [47] = system: SNB-19
# [48] = system: MDA-N
# [49] = system: NCI/ADR-RES
# [50] = system: SK-OV-3
# [51] = system: SW-620
# [52] = system: IGROV-1
# [53] = system: KM12
# [54] = system: T47D
# [55] = system: OVCAR-8
# [56] = system: HCT-116
smiles,measurement,setting,value
Cc1ccc(-c2cc(-c3ccc(Cl)cc3)nc(/N=C3\C(=O)N(CN(C)C)c4ccccc43)n2)cc1,GI50,[1],7.89 µM (inactive)
same,GI50,[2],39.9 µM (inactive)
same,GI50,[3],87.9 µM (inactive)
same,GI50,[4],> 100 µM (inactive)
same,GI50,[5],31.7 µM (inactive)
same,GI50,[6],64.1 µM (inactive)
same,GI50,[7],22.3 µM (inactive)
same,GI50,[8],11.5 µM (inactive)
same,GI50,[9],> 100 µM (inactive)
same,GI50,[10],31.4 µM (inactive)
same,GI50,[11],78.5 µM (inactive)
same,GI50,[12],17.1 µM (inactive)
same,GI50,[13],90.8 µM (inactive)
same,GI50,[14],81.5 µM (inactive)
same,GI50,[15],> 100 µM (inactive)
same,GI50,[16],> 100 µM (inactive)
same,GI50,[17],24.8 µM (inactive)
same,GI50,[18],50.9 µM (inactive)
same,GI50,[19],55 µM (inactive)
same,GI50,[20],> 100 µM (inactive)
same,GI50,[21],46.1 µM (inactive)
same,GI50,[22],> 100 µM (inactive)
same,GI50,[23],54.6 µM (inactive)
same,GI50,[24],14.9 µM (inactive)
same,GI50,[25],> 100 µM (inactive)
same,GI50,[26],> 100 µM (inactive)
same,GI50,[27],24.2 µM (inactive)
same,GI50,[28],57.8 µM (inactive)
same,GI50,[29],20.8 µM (inactive)
same,GI50,[30],89.1 µM (inactive)
same,GI50,[31],89.9 µM (inactive)
same,GI50,[32],98.9 µM (inactive)
same,GI50,[33],37.3 µM (inactive)
same,GI50,[34],85.3 µM (inactive)
same,GI50,[35],> 100 µM (inactive)
same,GI50,[36],> 100 µM (inactive)
same,GI50,[37],27.3 µM (inactive)
same,GI50,[38],> 100 µM (inactive)
same,GI50,[39],41.1 µM
same,GI50,[40],97.1 µM (inactive)
same,GI50,[41],> 100 µM (inactive)
same,GI50,[42],41.2 µM (inactive)
same,GI50,[43],77.8 µM (inactive)
same,GI50,[44],48.4 µM (inactive)
same,GI50,[45],54.8 µM (inactive)
same,GI50,[46],33.6 µM (inactive)
same,GI50,[47],> 100 µM (inactive)
same,GI50,[48],19.4 µM (inactive)
same,GI50,[49],43.5 µM (inactive)
same,GI50,[50],> 100 µM (inactive)
same,GI50,[51],12.9 µM (inactive)
same,GI50,[52],53.5 µM (inactive)
same,GI50,[53],64.6 µM (inactive)
same,GI50,[54],28.8 µM (inactive)
same,GI50,[55],58.9 µM (inactive)
same,GI50,[56],64 µM (inactive)
